Source: patent US20050147754A1, “Zirconium complex useful in a CVD method and a thin film preparation method using the complex” (Saes Getters S.p.A., priority 2002, published 2005)

Experiment: TG-DTA in dry air versus argon gas (oxidative degradation)
Conditions: onset of caloric value difference between dry air and argon gas, dDTA/dT, FIG. 3(b)

temperature at which oxidation reaction occurred	Compound
about 130 °C	CC(C)C(=O)C=C([O][Zr]([O]C(=CC(=O)C(C)C)C(C)C)([O]C(=CC(=O)C(C)C)C(C)C)[O]C(=CC(=O)C(C)C)C(C)C)C(C)C [Zr(DIBM)4, zirconium tetrakis[diisobutyrylmethanate]]
about 280 °C	CC(C)(C)C(=O)C=C(O)C(C)(C)C.CC(C)(C)C(=O)C=C(O)C(C)(C)C.CC(C)(C)C(=O)C=C(O)C(C)(C)C.CC(C)(C)C(=O)C=C(O)C(C)(C)C.[Zr] [Zr(DPM)4, zirconium tetrakis[dipivaloylmethanate]]
